The assay relates to mouse femoral artery. As to the kind of experiment: Mouse femoral vessel diameter by ICG fluorescence angiography under topically applied acetylcholine. Conditions: mouse femoral artery in vivo. As to the method:
In this example, a fluorescent dye (ICG) was injected into the vascular bed (via jugular cannulation in the mouse: via an infusion line in the langendorff perfused heart) and excited using radiation from a laser source (806 nm). The fluorescence (radiation) emitted by the dye (830 nm) was captured as a series of angiograms using a CCD camera. The camera relayed the angiograms to analog-to-digital conversion software running on a PC that digitized the angiograms. The digitized images were then analyzed both qualitatively (by viewing the monitor) and quantitatively. One example of quantitative evaluation that was undertaken was the determination of the mouse femoral artery diameter using software comprising a sub-pixel edge detection system running on the PC.
The foregoing fluorescence imaging technique was used on the mouse femoral artery in vivo. A more detailed explanation of each component of the apparatus, preparation of the animal, injection of ICG, and analytical method, are set forth in the following paragraphs.
The mouse was prepared by inducing anesthesia in an induction box using isoflurane (Ohmeda Pharmaceutical Products, Mississauga, ON, Canada) (4% in medical air, 4 L/min) and maintained by use of a facemask providing isoflurane at a rate of 1.5-2.0% in medical air (400 mL/min). During the experiment, the mouse was positioned on a thermostatted water blanket, with body temperature being monitored by a rectal temperature probe. To facilitate imaging of the vessels of interest, the thoracic, abdominal and inguinal areas of the mouse were shaved, the mouse positioned on its back, and the skin over the femoral vasculature was resected to expose the vasculature of interest. The jugular vein was cannulated using a piece of stretched PE10 tubing filled with saline containing 50 U heparin/mL.
After the mouse was prepared, a 10 μl bolus IV injection of ICG was administered, followed by an IV injection of 50 μl of saline solution. To prepare the bolus, 4 μg/ml of clinical grade ICG (CARDIO-GREEN™) was dissolved in sterile aqueous solvent within one hour of injection. All injections were administered via the cannula established in the jugular vein. The saline was used to flush the line and to ensure passage of an intact bolus through the femoral vasculature, producing a sharp wavefront.
Image analysis was performed using XCAP for Windows 95/98/NT version 1.0 (EPIX Inc., Buffalo Grove, Ill.). The image processing algorithm included the following steps.
1. Selection of vessels of interest. The anatomy of the vasculature varies between animals. Consequently, it was necessary to develop criteria for the selection of an area of interest. This process began with the positioning of the camera. The camera was positioned so that the field of view included the femoral artery and its branches. For the purposes of image analysis, the vessels of interest were the femoral artery and the branches that provided the highest resolution and the greatest degree of branching, usually tertiary or quaternary.
2. Calibration. The positioning of the camera with respect to the area being imaged varied with each animal, and it was therefore necessary to calibrate the camera for every image collected. A small diameter (320 μm) capillary tube (TSP320450; Polymicro Technologies, LLC, Phoenix, Ariz.) filled with ICG was used to calibrate the images. The image processing software includes a built-in calibration function that allows the specification of a set of pixel co-ordinates and the assignment of a user-defined value to the distance between these co-ordinates. The software's edge detector was used to determine the co-ordinates of the edges of the dye fluorescing in the capillary tube. The inner diameter of the capillary tube, in microns, was then assigned to the “length” of the distance between these points. Because this is a built-in feature of the software, all subsequent measurements in all frames of the image were stated in microns, rather than pixel units. […]

Molecules are shown by their SMILES.

The values below come from US7881777B2, “Method and apparatus for performing intra-operative angiography” (National Research Council of Canada, priority 1999, dated 2011).

Turning to `CC(=O)OCC[N+](C)(C)C` [Acetylcholine, acetylcholine], the “Vessel Diameter (microns)” value runs as follows: (Primary vessel, acetylcholine concentration 0.01 μM) 58.2 ± 1.3 microns; (Primary vessel, acetylcholine concentration 1.0 μM) 58.3 ± 1.5 microns; (Primary vessel, acetylcholine concentration 10.0 μM) 64.6 ± 1.5 microns; (Primary vessel, acetylcholine concentration .01 μM) 61.5 ± 1.7 microns; (Secondary vessel, acetylcholine concentration 0.01 μM) 67.0 ± 1.3 microns; (Secondary vessel, acetylcholine concentration 1.0 μM) 90.0 ± 1.8 microns. Also, the “Vessel Diameter (microns)” value reads like this: (Secondary vessel, acetylcholine concentration 10.0 μM) 75.0 ± 1.4 microns; (Secondary vessel, acetylcholine concentration .01 μM) 75.1 ± 1.2 microns; (Tertiary vessel, acetylcholine concentration 0.01 μM) 42.9 ± 0.6 microns; (Tertiary vessel, acetylcholine concentration 1.0 μM) 47.1 ± 1.2 microns; (Tertiary vessel, acetylcholine concentration 10.0 μM) 42.9 ± 0.8 microns; (Tertiary vessel, acetylcholine concentration .01 μM) 44.9 ± 0.6 microns.
